# Source: US10017509B2, “Macrocylic pyrimidine derivatives” (Janssen Pharmaceutica NV, priority 2014, dated 2018)
# Tests used:
# EF2K [1] = molecular target: T1, EF2K (Homo sapiens, UniProt O00418); experiment: Biochemical EF2K lysate-based kinase assay (AlphaLISA p-eEF2 Thr56); conditions: pIC50 = -log IC50 (M), read-out: eEF2K_C_alphalisa pIC50 (converted)
# T1 construct: host or cells: LN-229 cell lysate
# T1 sequence (O00418 1-725): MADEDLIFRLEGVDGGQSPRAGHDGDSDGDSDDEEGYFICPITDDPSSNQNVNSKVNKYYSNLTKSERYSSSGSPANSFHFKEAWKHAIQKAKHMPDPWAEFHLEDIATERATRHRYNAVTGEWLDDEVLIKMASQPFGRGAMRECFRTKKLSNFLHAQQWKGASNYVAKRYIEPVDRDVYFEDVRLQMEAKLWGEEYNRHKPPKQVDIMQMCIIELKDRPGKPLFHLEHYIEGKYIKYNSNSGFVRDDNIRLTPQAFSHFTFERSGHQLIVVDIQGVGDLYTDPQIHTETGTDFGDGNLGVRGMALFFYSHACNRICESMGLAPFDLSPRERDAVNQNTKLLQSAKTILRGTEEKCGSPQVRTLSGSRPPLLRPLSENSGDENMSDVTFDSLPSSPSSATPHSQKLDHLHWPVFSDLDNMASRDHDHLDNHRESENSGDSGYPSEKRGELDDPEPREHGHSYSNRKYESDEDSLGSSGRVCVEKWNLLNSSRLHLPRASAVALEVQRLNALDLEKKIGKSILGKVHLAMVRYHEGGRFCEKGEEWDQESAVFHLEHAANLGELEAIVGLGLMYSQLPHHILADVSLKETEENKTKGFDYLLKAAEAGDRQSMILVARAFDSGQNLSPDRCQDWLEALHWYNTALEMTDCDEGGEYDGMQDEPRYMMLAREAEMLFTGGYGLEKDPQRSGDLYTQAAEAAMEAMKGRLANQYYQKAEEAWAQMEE
# From the text: Biochemical EF2K Lysate-Based Kinase Assay
# LN-229 cells were purchased from ATCC (CRL-2611); these are glioblastoma cells. Cell lysates from LN229 were used in this kinase assay to provide both the kinase and the substrate (EF2). The AlphaLISA p-eEF2 (Thr56) detection assay was developed using a sandwich assay format with two specific antibodies recognizing different epitopes of the target, including one antibody against the phosphorylation site of interest. One anti-eEF2 antibody was conjugated onto AlphaLISA Acceptor beads, while the second antibody was biotinylated and captured by streptavidin coated Donor beads.
# Compound was mixed with LN-229 cell lysates in the presence of a kinase buffer (e.g. HEPES) at a pH of 6.6, containing 10 mM Mg^2+ (e.g. magnesium acetate) and 10 mM adenosine-tri-phosphate (ATP) and incubated at room temperature for 15 minutes. The kinase reaction was stopped with excess ethylenediaminetetraacetic acid disodium salt and the biotinylated-anti phospho eEF2 antibody (3 nM) was added for 1 hour. Then the anti-EF2 acceptor beads (10 μg/ml) as well as the streptavidin coated donor beads (20 μg/ml) were added for 1 hour, and the AlphaLISA signal was measured in an Envision instrument once, left overnight, and measured again for the final read.
# (§1) (pIC50 is −log IC50 where IC50 represents the concentration expressed in M at which the test compound gives 50% inhibition)
# EF2K [2] = molecular target: T1, EF2K; experiment: EF2K cell-based assay (P-EF2 AlphaLISA, 2-deoxyglucose stimulated MCF10A cells); conditions: 2.5 mM 2-deoxyglucose stimulated, P-EF2 Thr56, pIC50 = -log IC50 (M), read-out: eEF2K_C_PThr56 pIC50 (converted)
# Protocol: In this assay, 2.5 mM 2-deoxyglucose was used to deplete intracellular ATP and activate 5′ adenosine monophosphate-activated protein kinase (AMPK) in the immortalized epithelial breast cell lines, MCF10A. MCF 10A cells were purchased from ATCC (CRL-10317).
# MCF10A cells are seeded at a density of 1.25×10^5 Cells/ml at 100 μl/well in a 96-well plate and incubated for 24 hours (37° C., 5% CO2). Compound is added for 1 hour, and cell are stimulated with 2.5 mM of 2-deoxy-glucose for 4 hours. Medium is then removed, and cells are lysed in an ice-cold buffer M-PER (Thermo Scientific, 78501), containing protease and phosphatase inhibitors. P-EF2 levels are determined in these lysates using the P-EF2 AlphaLISA described above.
# as §1
# [3] = molecular target: Vps34 (PIK3C3 lipid kinase) (Homo sapiens, UniProt Q8NEB9); experiment: Biochemical Vps34 lipid kinase assay (ADP-Glo); conditions: for IC50: serial half-log dilution 10 μM to 0.3 nM, pIC50 = -log IC50 (M); for VPS34_1microM_% of cntrl / remaining activity at 1 µM: single dose 1 μM compound, residual activity compared to control (DMSO); for remaining activity at 1 µM: 1 h, read-out: VPS34_1microM_% of cntrl
# Protocol: Biochemical Vps34 Lipid Kinase Assay
# A non-radiometric kinase assay (ADP-Glo™ Assay, Promega, Madison, Wi, USA) was used for measuring the kinase activity of the PIK3C3 lipid kinase. All kinase assays were performed in 96-well half-area microtiter plates in a 25 μl reaction volume. The reaction cocktail was pipetted in 3 steps in the following order: • 10 μl of ATP solution (in assay buffer, see below) • 5 μl of test sample in 5% DMSO 10 μl of enzyme/substrate mixture
# All lipid kinase assays contained 50 mM HEPES (4-(2-hydroxyethyl)-1-piperazineethanesulfonic acid)-NaOH, pH 7.5, 1 mM EGTA ((ethylene glycol tetraacetic acid), 100 mM NaCl, 0.03% CHAPS (3-[(3-Cholamidopropyl)dimethylammonio]-1-propanesulfonate), 2 mM DTT (Dithiothreitol), 20 μM ATP (corresponding to the apparent ATP-Km), kinase (7.6 nM) and substrate (50 μM). The assay for PIK3C3 additionally contained 3 mM MnCl2.
# The reaction cocktails were incubated at 30° C. for 60 minutes. The reaction was stopped with 25 μl ADP-Go™ reagent per well. Plates were incubated for 40 minutes at room temperature, followed by addition of 50 μl kinase detection reagent per well and incubation for 60 minutes at room temperature. Signal was determined with a microplate luminescence reader (Victor, Perkin Elmer). The assay was either performed using a single dose of compound (1 μM final concentration in the assay reaction) with resulting data expressed as residual activity compared to control (DMSO), or using a serial (half-log) dilution of compounds starting at 10 μM and down to 0.3 nM (final concentrations in the assay) with data expressed as the pIC50.
# as §1
# Chain of Vps34 (PIK3C3 lipid kinase) (Q8NEB9 whole entry, species assumed): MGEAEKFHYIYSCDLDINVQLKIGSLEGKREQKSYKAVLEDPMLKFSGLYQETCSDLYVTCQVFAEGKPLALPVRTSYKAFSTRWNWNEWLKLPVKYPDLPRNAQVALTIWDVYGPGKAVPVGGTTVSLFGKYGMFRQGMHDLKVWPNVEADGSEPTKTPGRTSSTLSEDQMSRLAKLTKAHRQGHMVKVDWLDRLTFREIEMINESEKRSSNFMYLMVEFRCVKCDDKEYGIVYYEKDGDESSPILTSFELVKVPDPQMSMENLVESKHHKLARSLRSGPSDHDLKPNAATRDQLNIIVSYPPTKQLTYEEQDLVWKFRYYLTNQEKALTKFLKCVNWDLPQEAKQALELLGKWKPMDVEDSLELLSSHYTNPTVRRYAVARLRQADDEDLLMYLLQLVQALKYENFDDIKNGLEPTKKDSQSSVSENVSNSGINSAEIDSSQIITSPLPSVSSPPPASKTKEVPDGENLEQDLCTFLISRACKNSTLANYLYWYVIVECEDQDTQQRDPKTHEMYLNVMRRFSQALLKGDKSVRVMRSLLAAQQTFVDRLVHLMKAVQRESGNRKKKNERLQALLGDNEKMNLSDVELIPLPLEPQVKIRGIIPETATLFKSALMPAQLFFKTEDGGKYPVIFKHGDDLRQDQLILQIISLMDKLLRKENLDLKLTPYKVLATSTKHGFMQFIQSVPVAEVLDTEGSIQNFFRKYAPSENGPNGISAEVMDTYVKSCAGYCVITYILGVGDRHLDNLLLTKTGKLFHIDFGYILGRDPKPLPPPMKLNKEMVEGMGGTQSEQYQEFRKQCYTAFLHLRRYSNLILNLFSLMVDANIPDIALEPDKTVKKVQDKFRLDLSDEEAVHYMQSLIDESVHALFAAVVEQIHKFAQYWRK
SMILES,IC50 (EF2K [1]),IC50 (EF2K [2]),IC50 [3],VPS34_1microM_% of cntrl [3],remaining activity at 1 µM [3]
"CC1CN2CCN1CC(=O)NCCCNc1ccc(cn1)-c1ccnc(n1)Nc1cccc(c1)C2 (single isomer, unassigned) [Compound 136]",1.45e-07 M,~8.51e-06 M,1.66e-08 M,3.08 % of cntrl,
O=C1NCCCNc2ccc(cn2)-c2ccnc(n2)Nc2cccc(c2)CN2CCN(CC2)C1CO (stereo not drawn) [Compound 65],1.66e-07 M,5.62e-06 M,3.31e-07 M,,10.8%
COCCN1CCNC(=O)CN2CCN(CC2)Cc2cccc(c2)Nc2nccc(n2)-c2ccc(nc2)C1 [Compound 42],3.24e-08 M,4.27e-07 M,3.02e-07 M,,10.2%
"CC1CN2CCN1Cc1cccc(c1)Nc1nccc(n1)-c1ccc(nc1)NCCCNC(=O)C2 (single isomer, unassigned) [Compound 62]",7.76e-08 M,2.04e-06 M,,166.89 % of cntrl,
CC1C(=O)N(C)CCCN(C)c2ccc(cn2)-c2ccnc(n2)Nc2cccc(c2)CN2CCN1CC2 (stereo not drawn) [Compound 67],1.29e-07 M,3.89e-06 M,,,32.1%
"O=C1CN2CCN(CC2)Cc2cccc(c2)Nc2nccc(n2)-c2ccc(nc2)N2CC(O)CC2CCN1 (single isomer, unassigned) [Compound 96]",6.76e-09 M,1.26e-06 M,1.32e-07 M,,
O=C1CN2CCN(CC2)Cc2cc(F)cc(c2)Nc2nccc(n2)-c2ccc(nc2)NCCCN1 [Compound 5],7.59e-07 M,2.51e-05 M,6.92e-08 M,,7.3%
CN1CCCN(C)c2ccc(cn2)-c2ccnc(n2)Nc2cccc(c2)CN2CCC(CC2)CC1=O [Compound 81],2.4e-06 M,1.82e-05 M,8.91e-07 M,,26.4%
O=C1CNCCCNc2ccc(cn2)-c2ccnc(n2)Nc2cccc(c2)N2CCN1CC2 [Compound 111],4.47e-06 M,> 3.02e-05 M,1.7e-07 M,,1.43%
O=C1NCCCNc2ccc(cn2)-c2ccnc(n2)Nc2cccc(c2)CN2CCN1CC2 [Compound 130],> 3.02e-05 M,> 3.02e-05 M,2.4e-07 M,,21%
CN1CCCN(C)c2ccc(cn2)-c2ccnc(n2)Nc2cc(F)cc(c2)CN2CCN(CC2)CC1=O [Compound 6],6.61e-07 M,2.45e-05 M,2.51e-07 M,,17.4%
O=C1CN2CCN(CC2)Cc2cccc(c2)Nc2nccc(n2)-c2ccc(nc2)NC(=O)CCN1 [Compound 85],2.69e-06 M,> 3.02e-05 M,,,47.6%
"CN1CCCN(C)c2ccc(cn2)-c2ccnc(n2)Nc2cccc(c2)CN2CCN(CC1=O)CC2COCCN1CCOCC1 (single isomer, unassigned) [Compound 99]",2.4e-06 M,> 3.02e-05 M,1.51e-06 M,,
CC1CN2CCN1CC(=O)NCCCNc1ccc(cn1)-c1ccnc(n1)Nc1cccc(c1)C2 (stereo not drawn) [Compound 49],3.89e-07 M,2.34e-06 M,,,37.4%
N#Cc1ccc2cc1CN1CCN(CC1)CC(=O)NCCCNc1ccc(cn1)-c1ccnc(n1)N2 [Compound 14],7.08e-08 M,7.59e-06 M,1.05e-07 M,,3.37%
CN1CCN(CCOCC2CN3CCN2Cc2cccc(c2)Nc2nccc(n2)-c2ccc(nc2)N(C)CCCN(C)C(=O)C3)CC1 (stereo not drawn) [Compound 106],3.02e-07 M,1.66e-05 M,,,36.3%
O=C1CNCCCNc2ccc(cn2)-c2ccnc(n2)Nc2cccc(c2)CN2CCN1CC2 [Compound 112],3.89e-06 M,7.41e-06 M,6.03e-08 M,,6.25%
CN1CCCN(C)c2ccc(cn2)-c2ccnc(n2)Nc2cccc(c2)CN2CCN(CC1=O)CC2COCCN1CCNCC1 (stereo not drawn) [Compound 107],3.24e-07 M,> 3.02e-05 M,,,32.7%
"CN1CCCN(C)c2ccc(cn2)-c2ccnc(n2)Nc2cccc(c2)CN2CCN(CC1=O)CC2CO (single isomer, unassigned) [Compound 52]",9.12e-07 M,> 3.02e-05 M,3.98e-07 M,,12.8%
CS(=O)(=O)N1CCNC(=O)CN2CCN(CC2)Cc2cccc(c2)Nc2nccc(n2)-c2ccc(nc2)C1 [Compound 133],2.57e-06 M,> 1e-05 M,1.48e-07 M,,14.6%
Cc1c2cccc1Nc1nccc(n1)-c1ccc(nc1)NCCCNC(=O)CN1CCN(CC1)C2 [Compound 19],~1.58e-06 M,> 3.02e-05 M,,,87.1%
COCC1C(=O)NCCCNc2ccc(cn2)-c2ccnc(n2)Nc2cccc(c2)CN2CCN1CC2 (stereo not drawn) [Compound 66],7.76e-08 M,4.17e-06 M,1.41e-07 M,,6.72%
O=C1CN2CCN(CC2)Cc2cccc(c2)Nc2nccc(n2)-c2ccc(nc2)CN(C(=O)C(F)(F)F)CCN1 [Compound 132],6.92e-08 M,3.98e-06 M,1.91e-07 M,,7.12%
O=C1CN2CCN(CC2)Cc2cccc(c2)Nc2nccc(n2)-c2ccc(nc2)NCCCN1 [Compound 31],1.07e-07 M,~3.98e-06 M,8.71e-08 M,,8.47%
"O=C1CN2CCN(CC2)Cc2cccc(c2)Nc2nccc(n2)-c2ccc(nc2)N2CC(O)CC2CCN1 (single isomer, unassigned) [Compound 89]",~6.31e-06 M,> 3.02e-05 M,4.68e-08 M,,13.6%
COCCOCC1CN2CCN1Cc1cccc(c1)Nc1nccc(n1)-c1ccc(nc1)N(C)CCCN(C)C(=O)C2 (stereo not drawn) [Compound 101],1.7e-07 M,2.04e-05 M,7.76e-07 M,,29.4%
O=C1CN2CCN(CC2)Cc2cccc(c2)Nc2nccc(n2)-c2ccc(nc2)CN(CC2CCCO2)CCN1 (stereo not drawn) [Compound 40],1.35e-07 M,~8.13e-07 M,2.24e-07 M,,17.7%
